From ChEMBL document CHEMBL1201862, “PubChem BioAssay data set” (2004)
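Interpolation was linear, between the two tested concentrations surrounding the appropriate level; five concentrations were tested over 48 hours in 96-well plates. GI50: concentration for 50% inhibition of growth.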 Activity calls are given as the source filed them. Cut-off read from the data, not from the text of the source: active = GI50 up to about 1.1 µM and inactive = higher.

Key:
Experiment in all cases: DTP human tumour cell line panel, 48 h
BT-549 = system: BT-549
MCF7 = system: MCF7
HCT-15 = system: HCT-15
HCT-116 = system: HCT-116
U-251 = system: U-251
NCI-H460 = system: NCI-H460
PC-3 = system: PC-3
Hs-578T = system: Hs-578T
786-0 = system: 786-0
M14 = system: M14
MDA-MB-435 = system: MDA-MB-435
SW-620 = system: SW-620
UO-31 = system: UO-31
HOP-62 = system: HOP-62
A498 = system: A498
SF-268 = system: SF-268
NCI-H23 = system: NCI-H23
SNB-75 = system: SNB-75
SK-MEL-2 = system: SK-MEL-2
HCC 2998 = system: HCC 2998

## CCOC(=O)c1ccc(N(C)Cc2cnc3nc(N)nc(N)c3n2)cc1
BT-549
  GI50: 17.3 µM (inactive)
MCF7
  GI50: 12.6 µM (inactive)
HCT-15
  GI50: 4.85 µM
HCT-116
  GI50: 3.66 µM (inactive)
U-251
  GI50: 8.99 µM (inactive)
NCI-H460
  GI50: 9.79 µM (inactive)
PC-3
  GI50: 5.02 µM (inactive)
Hs-578T
  GI50: 12.7 µM (inactive)
786-0
  GI50: 7.45 µM (inactive)
M14
  GI50: 7.83 µM (inactive)
MDA-MB-435
  GI50: 8.83 µM (inactive)
SW-620
  GI50: 6.3 µM (inactive)
UO-31
  GI50: 14.2 µM (inactive)
HOP-62
  GI50: 13 µM (inactive)
A498
  GI50: 13.1 µM (inactive)
SF-268
  GI50: 9.51 µM (inactive)
NCI-H23
  GI50: 9.04 µM (inactive)
SNB-75
  GI50: 16.3 µM (inactive)
SK-MEL-2
  GI50: 21.4 µM (inactive)

## Cc1nnc(S(=O)(=O)c2ccc(/N=N/c3c(N)nc(N)nc3N)cc2)s1
BT-549
  GI50: > 100 µM (inactive)
MCF7
  GI50: > 100 µM (inactive)
HCT-15
  GI50: > 100 µM
HCT-116
  GI50: > 100 µM (inactive)
U-251
  GI50: > 100 µM (inactive)
NCI-H460
  GI50: > 100 µM (inactive)
PC-3
  GI50: > 100 µM (inactive)
Hs-578T
  GI50: > 100 µM (inactive)
786-0
  GI50: > 100 µM (inactive)
M14
  GI50: > 100 µM (inactive)
MDA-MB-435
  GI50: > 100 µM (inactive)
SW-620
  GI50: > 100 µM (inactive)
UO-31
  GI50: > 100 µM (inactive)
HOP-62
  GI50: > 100 µM (inactive)
A498
  GI50: > 100 µM (inactive)
SF-268
  GI50: > 100 µM (inactive)
NCI-H23
  GI50: > 100 µM (inactive)
SK-MEL-2
  GI50: > 100 µM (inactive)

## O=C(O)[C@@H]1C2CC([C@@H]1C(=O)O)[C@H](N1C(=O)CCC1=O)[C@@H]2Br (stereo not given in full)
BT-549
  GI50: > 100 µM (inactive)
HCT-15
  GI50: > 100 µM
HCT-116
  GI50: > 100 µM (inactive)
U-251
  GI50: > 100 µM (inactive)
NCI-H460
  GI50: > 100 µM (inactive)
PC-3
  GI50: > 100 µM (inactive)
Hs-578T
  GI50: > 100 µM (inactive)
786-0
  GI50: > 100 µM (inactive)
M14
  GI50: > 100 µM (inactive)
MDA-MB-435
  GI50: > 100 µM (inactive)
SW-620
  GI50: > 100 µM (inactive)
UO-31
  GI50: > 100 µM (inactive)
HCC 2998
  GI50: > 100 µM (inactive)
HOP-62
  GI50: > 100 µM (inactive)
A498
  GI50: > 100 µM (inactive)
SF-268
  GI50: > 100 µM (inactive)
NCI-H23
  GI50: > 100 µM (inactive)
SNB-75
  GI50: 84.5 µM (inactive)
SK-MEL-2
  GI50: > 100 µM (inactive)

## CC1(C)CCCCCC(O)C(O)CCC(C)(C)C1=O (stereo not given)
BT-549
  GI50: > 100 µM (inactive)
MCF7
  GI50: > 100 µM (inactive)
HCT-15
  GI50: > 100 µM
HCT-116
  GI50: > 100 µM (inactive)
U-251
  GI50: > 100 µM (inactive)
NCI-H460
  GI50: > 100 µM (inactive)
PC-3
  GI50: > 100 µM (inactive)
Hs-578T
  GI50: > 100 µM (inactive)
786-0
  GI50: > 100 µM (inactive)
M14
  GI50: > 100 µM (inactive)
MDA-MB-435
  GI50: > 100 µM (inactive)
SW-620
  GI50: > 100 µM (inactive)
UO-31
  GI50: > 100 µM (inactive)
HOP-62
  GI50: > 100 µM (inactive)
A498
  GI50: > 100 µM (inactive)
SF-268
  GI50: > 100 µM (inactive)
NCI-H23
  GI50: > 100 µM (inactive)
SNB-75
  GI50: > 100 µM (inactive)
SK-MEL-2
  GI50: > 100 µM (inactive)
